Assay results taken from patent EP2939983A1, “Titanium dioxide-catalysed oxidation method” (Sistiana Inversiones S.L., priority 2014, dated 2015).

What was measured:
[1] = Rhodamine B degradation kinetics with TiO2 catalyst, H2O2 and acid in the absence of light
Source text: The walls of a beaker (Ǿ = 10 cm) were covered with aluminum foil to prevent any light exposure to the inside. A magnetic stirrer was introduced in a smaller beaker (Ǿ = 6.5 cm), which was then covered on the top with parafilm and a small hole was punched thereon. The smaller beaker was introduced concentrically into the larger one. To immobilize the inner beaker, a foam was placed between the walls of the two vessels. A cover of the same foam (Ǿ = 10 cm, 1.5 cm thick) was placed on the top of the larger beaker. In the cover, a hole (Ǿ = 0.5 cm) close to the inside wall of the inner beaker facilitated sample collection in the vortex formed during the agitation of the reaction mixture. A second hole situated on the opposite side of the first one was punched in order to facilitate pH measurements.
The catalytic reactor was placed on the stirrer (VMS-C4, VWR) at around 750 rpm. Then, the inner beaker was filled with the help of a funnel with the required amount of TiO2. Immediately afterwards, the appropriate amount of 9.8 M H2O2 and deionised water, in each case, for a total volume of 20 mL, was introduced. The mixture was stirred for 1 minute, and 20 mL of the required concentration of Rhodamine B were then added. In the cases where an acid was employed, the corresponding amount of acid to achieve a particular pH was introduced in the reaction mixture before the addition of Rhodamine B. After 3 minutes stirring, an aliquot of 1 mL was taken through a plastic Pasteur pipette and was introduced in an Eppendorf tube (1.5 mL). The sample was centrifugated (Mikro 120, Hettich Zentrifugen) at 14000 rpm for 1 minute. The supernatant was centrifugated again under the same conditions and the remaining supernatant was placed in a 1.5 mL cuvette for analysis in a spectrophotometer (Du 730, Beckman Coulter). […] Finally, the TiO2 and the liquid were reintroduced into the inner beaker. The procedure, starting with the 1 mL aliquot extraction, was repeated (at least) every 3 min for a maximum of 2 h. The experiment was repeated 4 times for every imposed condition.
Linear regressions were conducted with the obtained data. […] The kinetic constant of the reaction was the parameter used to compare the oxidative capacity of the different oxidation conditions in the method of the invention.

[2] = in water; cited from earlier work
[3] = 5% H2O2, 10g/L TiO2 (aeroxide P90), pH=3 (HCl), 0.025 mM Rhodamine B; reaction order 0.66
[4] = 0.025 mM Rhodamine B, 30g/L of TiO2 (aeroxide P90), 5% H2O2 solution
[5] = 0.025 mM Rhodamine B, 30g/L of TiO2 (aeroxide P90), 5% H2O2 solution, pH 2.0
[6] = 0.025 mM Rhodamine B, 30g/L of TiO2 (aeroxide P90), 5% H2O2 solution, pH 2.0, absence of light
[7] = 0.050 mM Rhodamine B, 10g/L of TiO2 (aeroxide P90), 5% H2O2 solution, pH of 2

Structure (SMILES): Cl [Hydrochloric, hydrochloric acid]
- Rate constants for degradation kinetics (k554/min^-1), pH 1.5 [1]: 0.3370±0.0990 min^-1
- Rate constants for degradation kinetics (k554/min^-1), pH 2.0 ([1]; pH 2): 0.1260±0.0173 min^-1

Structure (SMILES): O=C(O)C(F)(F)F [trifluoroacetic acid]
- pKa [2]: -0.25

Structure (SMILES): [O-][Cl+3]([O-])([O-])O [Perchloric, perchloric acid]
- Rate constants for degradation kinetics (k554/min^-1), pH 1.5 [1, 4]: 0.3550±0.1180 min^-1
- Rate constants for degradation kinetics (k554/min^-1), pH 2.0 [1, 5]: 0.1194±0.0095 min^-1
- Rate constants for degradation kinetics (k544/min^-1) [1, 6]: 0.1194 ± 0.0095 min⁻¹
- Rate constants for degradation kinetics (k544/min^-1) [1, 7]: 0.0318 ± 0.0021 min⁻¹

Structure (SMILES): O=O [oxygen]
- kinetic constant greater than that of the reaction not supplied with oxygen [3]: about 15%

Structure (SMILES): O=CO [Formic, formic acid, reference compound]
- Rate constants for degradation kinetics (k544/min^-1) ([1]; pH 2): 0.0263 ± 0.0035 min⁻¹

Structure (SMILES): [O]=[Cr](=[O])([OH])[OH] [chromic acid]
- pKa [2]: -0.1

Structure (SMILES): O=S(=O)(O)O [Sulfuric, sulfuric acid]
- Rate constants for degradation kinetics (k554/min^-1), pH 1.5 [1, 4]: 0.2360±0.0430 min^-1
- Rate constants for degradation kinetics (k554/min^-1), pH 2.0 [1, 5]: 0.1124±0.0112 min^-1
- Rate constants for degradation kinetics (k544/min^-1) [1, 6]: 0.1124 ± 0.0112 min⁻¹
- Rate constants for degradation kinetics (k544/min^-1) [1, 7]: 0.0293 ± 0.0021 min⁻¹

Structure (SMILES): O=S(O)O [sulfurous acid]
- pKa [2]: 1.9
